Measurements as given in article PMC8296573, “Synthesis and Biological Evaluation of Fingolimod Derivatives as Antibacterial Agents” (ACS Omega, 2021).
In brackets after ≈: the same amount, converted by molar mass. Read-outs that look alike come from different tables or passages of the source.

Experiments:
A. baumannii NCTC 13423 = assay: Antibacterial activity, pre-exposure; assay type: cell-based, Acinetobacter baumannii
Procedure, shortened: (§1)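 Bacteria and compound were co-incubated from the start for 18 h at 37 °C, 220 rpm. Planktonic cells scored by turbidity plus resazurin reduction; washed biofilms scored by 20 μM resazurin (30, 60, 90 min for S. aureus, A. baumannii, P. aeruginosa) and ethanol-fixed crystal violet staining.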

S. aureus ATCC 25923 [1] = assay: Antibacterial activity, pre-exposure (planktonic cells and biofilm formation); assay type: cell-based, Staphylococcus aureus; conditions: for inhibition at 5 µM / inhibition at 10 µM / inhibition at 15 µM / inhibition at 25 µM / Average inhibition %, biofilms viability / Average inhibition %, planktonic cells viability: pre-exposure, ± SD
Procedure, shortened: as §1

S. aureus ATCC 25923 [2] = assay: Antibacterial activity, post-exposure on preformed 18-h-old biofilms; assay type: cell-based, Staphylococcus aureus; conditions: ± SD; for inhibition at 25 µM / inhibition at 50 µM / inhibition at 100 µM / inhibition at 200 µM: Staphylococcus aureus; for inhibition at 25 µM: ATCC25923, 25 µM; for inhibition at 50 µM: ATCC25923, 50 µM; for inhibition at 100 µM: ATCC25923, 100 µM; for inhibition at 200 µM: ATCC25923, 200 µM
Procedure, shortened: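 Compounds were applied to preformed 18-h biofilms after medium change and left 24 h. Read-outs: planktonic OD plus resazurin fluorescence (20 μM), biofilm metabolic activity by resazurin 30 min at 37 °C, then biomass by crystal violet absorbance at 595 nm after ethanol fixation.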

[3] = Acinetobacter baumannii, NCTC13423, A. baumannii NCTC 13423, pre-exposure, ± SD, read-out: Average inhibition %, biofilms biomass
[4] = Acinetobacter baumannii, NCTC13423, A. baumannii NCTC 13423, pre-exposure, ± SD, read-out: Average inhibition %, planktonic cells turbidity
[5] = read-out: Average inhibition %, biofilms biomass
[6] = read-out: Average inhibition %, planktonic cells turbidity

`CCCCCCCCc1ccc(CCC(N)(CO)CO)cc1` [fingolimod, Fingolimod] was tested. Which “Average inhibition %, planktonic cells viability” value (A. baumannii NCTC 13423; A. baumannii NCTC 13423, pre-exposure, 50 µM, ± SD) did it give?
The value was 99.4 ± 0.4%.

What about the inhibition at 10 µM (A. baumannii NCTC 13423; [3]) of the same compound?
The inhibition at 10 µM was 1.9 ± 3.9%.

And the inhibition at 10 µM (A. baumannii NCTC 13423; [4])?
Its inhibition at 10 µM is 0%.

And the inhibition at 15 µM (A. baumannii NCTC 13423; [3])?
The inhibition at 15 µM was 44.1 ± 26.9%.

And the inhibition at 15 µM (A. baumannii NCTC 13423; [4])?
The inhibition at 15 µM was 71.1 ± 37.7%.

And the inhibition at 25 µM (A. baumannii NCTC 13423; [3])?
The inhibition at 25 µM was 79.2 ± 13.4%.

What about the inhibition at 25 µM (A. baumannii NCTC 13423; [4]) of the same compound?
The inhibition at 25 µM was 98.8 ± 2%.

What about the inhibition at 50 µM (A. baumannii NCTC 13423; Acinetobacter baumannii, NCTC13423, A. baumannii NCTC 13423, pre-exposure, 50 µM, ± SD, read-out: Average inhibition %, biofilms biomass) of the same compound?
The inhibition at 50 µM was 84.8 ± 7.8%.

What about the inhibition at 50 µM (A. baumannii NCTC 13423; Acinetobacter baumannii, NCTC13423, A. baumannii NCTC 13423, pre-exposure, 50 µM, ± SD, read-out: Average inhibition %, planktonic cells turbidity) of the same compound?
The inhibition at 50 µM was 98.5 ± 1.4%.

And the MIC (A. baumannii NCTC 13423; Acinetobacter baumannii, NCTC13423, pre-exposure, Inactive = no activity up to 50 μM, > = some inhibition but no MIC reached, read-out: MIC A. baumannii NCTC 13423)?
The MIC was 25 µM (≈ 7.69 µg/mL).

What about the MIC (S. aureus ATCC 25923 [1]; Staphylococcus aureus, ATCC25923, lowest concentration with no visible growth (>90% inhibition of turbidity and viability of planktonic cells), 18 h, read-out: MIC S. aureus ATCC 25923) of the same compound?
The MIC was 15 µM (≈ 4.61 µg/mL).

And the inhibition at 5 µM (S. aureus ATCC 25923 [1]; Staphylococcus aureus, ATCC25923, 5 µM, read-out: Average inhibition %, biofilms biomass)?
Its inhibition at 5 µM is 37 ± 11.2%.

What about the inhibition at 5 µM (S. aureus ATCC 25923 [1]; Staphylococcus aureus, ATCC25923, 5 µM, read-out: Average inhibition %, planktonic cells turbidity) of the same compound?
The inhibition at 5 µM was 25 ± 10.6%.

And the inhibition at 10 µM (S. aureus ATCC 25923 [1]; Staphylococcus aureus, ATCC25923, 10 µM, read-out: Average inhibition %, biofilms biomass)?
Its inhibition at 10 µM is 42.2 ± 5%.

What about the inhibition at 10 µM (S. aureus ATCC 25923 [1]; Staphylococcus aureus, ATCC25923, 10 µM, read-out: Average inhibition %, planktonic cells turbidity) of the same compound?
Its inhibition at 10 µM is 36.7 ± 10%.

And the inhibition at 15 µM (S. aureus ATCC 25923 [1]; Staphylococcus aureus, ATCC25923, 15 µM, read-out: Average inhibition %, biofilms biomass)?
Its inhibition at 15 µM is 91.7 ± 6%.

What about the inhibition at 15 µM (S. aureus ATCC 25923 [1]; Staphylococcus aureus, ATCC25923, 15 µM, read-out: Average inhibition %, planktonic cells turbidity) of the same compound?
Its inhibition at 15 µM is 99.8 ± 0.1%.

What about the inhibition at 25 µM (S. aureus ATCC 25923 [1]; Staphylococcus aureus, ATCC25923, 25 µM, read-out: Average inhibition %, biofilms biomass) of the same compound?
Its inhibition at 25 µM is 90.8 ± 6.9%.

What about the inhibition at 25 µM (S. aureus ATCC 25923 [1]; Staphylococcus aureus, ATCC25923, 25 µM, read-out: Average inhibition %, planktonic cells turbidity) of the same compound?
Its inhibition at 25 µM is 99.8 ± 0.1%.

And the “Average inhibition %, biofilms viability” value (S. aureus ATCC 25923 [1]; 5 µM)?
Its value is 38.7 ± 5.5%.

What about the “Average inhibition %, planktonic cells viability” value (S. aureus ATCC 25923 [1]; 5 µM) of the same compound?
The value was 16.1 ± 26.5%.

And the “Average inhibition %, biofilms viability” value (S. aureus ATCC 25923 [1]; 10 µM)?
The value was 41.5 ± 7.1%.

What about the “Average inhibition %, planktonic cells viability” value (S. aureus ATCC 25923 [1]; 10 µM) of the same compound?
The value was 17.2 ± 23.4%.

And the “Average inhibition %, biofilms viability” value (S. aureus ATCC 25923 [1]; 15 µM)?
The value was 99.7 ± 0.2%.

What about the “Average inhibition %, planktonic cells viability” value (S. aureus ATCC 25923 [1]; 15 µM) of the same compound?
Its value is 99.9 ± 0%.

What about the “Average inhibition %, biofilms viability” value (S. aureus ATCC 25923 [1]; 25 µM) of the same compound?
Its value is 99.5 ± 0.1%.

What about the “Average inhibition %, planktonic cells viability” value (S. aureus ATCC 25923 [1]; 25 µM) of the same compound?
The value was 99.9 ± 0.1%.

And the “Average inhibition %, biofilms viability” value (S. aureus ATCC 25923 [2]; 25 µM)?
The value was 19.2 ± 14.5%.

What about the “Average inhibition %, planktonic cells viability” value (S. aureus ATCC 25923 [2]; 25 µM) of the same compound?
The value was 7.8 ± 3.6%.

What about the “Average inhibition %, biofilms viability” value (S. aureus ATCC 25923 [2]; 50 µM) of the same compound?
The value was 35 ± 7%.

And the “Average inhibition %, planktonic cells viability” value (S. aureus ATCC 25923 [2]; 50 µM)?
Its value is 2.9 ± 2.6%.

And the “Average inhibition %, biofilms viability” value (S. aureus ATCC 25923 [2]; 100 µM)?
The value was 52.2 ± 12.4%.

And the “Average inhibition %, planktonic cells viability” value (S. aureus ATCC 25923 [2]; 100 µM)?
The value was 48.9 ± 16.2%.

And the “Average inhibition %, biofilms viability” value (S. aureus ATCC 25923 [2]; 200 µM)?
The value was 77.3 ± 19%.

And the “Average inhibition %, planktonic cells viability” value (S. aureus ATCC 25923 [2]; 200 µM)?
The value was 90.5 ± 9.9%.

What about the inhibition at 25 µM (S. aureus ATCC 25923 [2]; [5]) of the same compound?
The inhibition at 25 µM was 39.7 ± 16.2%.

And the inhibition at 25 µM (S. aureus ATCC 25923 [2]; [6])?
Its inhibition at 25 µM is 1.1 ± 2%.

What about the inhibition at 50 µM (S. aureus ATCC 25923 [2]; [5]) of the same compound?
The inhibition at 50 µM was 60.7 ± 12.4%.

What about the inhibition at 50 µM (S. aureus ATCC 25923 [2]; [6]) of the same compound?
The inhibition at 50 µM was 13.8 ± 11.2%.

What about the inhibition at 100 µM (S. aureus ATCC 25923 [2]; [5]) of the same compound?
The inhibition at 100 µM was 67.3 ± 9.5%.

What about the inhibition at 100 µM (S. aureus ATCC 25923 [2]; [6]) of the same compound?
The inhibition at 100 µM was 42.4 ± 7%.

What about the inhibition at 200 µM (S. aureus ATCC 25923 [2]; [5]) of the same compound?
The inhibition at 200 µM was 71 ± 11%.

What about the inhibition at 200 µM (S. aureus ATCC 25923 [2]; [6]) of the same compound?
The inhibition at 200 µM was 75.5 ± 11%.
